The values below come from patent US20240261245A1, “METHODS OF TREATING CANCERS HAVING A DEREGULATED NRF2/KEAP1 PATHWAY” (New York University, priority 2017, published 2024).

Data set [1] concerns Nrf2. The settings on record: SFN 10 μM for 6 hr. Here is the method: (§1) Cells were maintained in DMEM or RPMI supplemented with 10% Fetal Bovine Serum and gentamicin. Cell lines expressing rtTA were kept under Neomycin selection (400 ug/mL). Cell lines expressing dox inducible Nrf2 constructs remained under Hygromycin selection (600 ug/mL). […] Viability in the presence of all compounds was assessed by cell titer glo (Promega #G7570) and trypan blue exclusion on a Countess II automated cell counter (Life Technologies). For clonogenic and low-density assays, cells were stained with Crystal Violet solution (25% Methanol 75% H20). For cell counts after DMF treatment cells were fixed with 4% paraformaldehyde for 15 minutes at 4 C. Cells were then washed in ice cold PBS and then stained with Hoechst DNA stain. Plates were quantified using a Tecan infinite M200 Pro plate reader or a SpectraMax M5 Miroplate reader (Molecular Devices).
Cells were lysed in 250 μL ice-cold RIPA buffer (Pierce, #89900) supplemented with 1 × Complete Mini inhibitor mixture (Roche, #11 836 153 001) and mixed on a rotator at 4° C. for 30 minutes. The protein concentration of the cell lysates was quantified using the Bio-Rad DC Protein Assay (Catalog #500-0114). 50-80 μg of total protein was separated on 4-12% Bis-Tris gradient gels (Bio-Rad) by SDS-PAGE and then transferred to nitrocellulose membranes. […]
RNA was collected from cells as before (Papagiannakopoulos et al. (2016, Cell Metab 24, 324-331, doi:10.1016/j.cmet.2016.07.001) with RNeasy plus mini kit (Qiagen), sequenced with X analyzed with YZ. For Real Time qPCR analysis, complementary DNA (cDNA) was synthesized from RNA with the High Capacity cDNA Reverse Transcription Kit (Applied Biosystems #4368814). Genes Slc7a11, Gclc, Hmox1, and Nqo1 were analyzed by quantitative reverse transcription polymerase chain reaction on LightCycler 480 II (Roche). RT qPCR primers (Supplementary Sequences).

For data set [2], the system named is KPK cell lines. In words: Viability/growth of KPK (Keap1 loss) cell lines compared to KP (cell titer glo, trypan blue, crystal violet). It counts as cell-based, mouse. Here is the method:
as §1
(In general: In ATP-based viability assays light output follows the ATP content of the culture.)

In data set [3] the test system is glutathione (GSH). Description: Glutathione measurement (GSH/GSSG-Glo) after BSO. It counts as cell-based, mouse. Here is the method:
ROS in cultured cells were measured by incubating […] with 5 μM CM-H2DCFDA (C6827, Life Technologies) for 30 min at 37° C. DCF fluorescence was acquired on the Attune NxT (ThermoFisher) flow cytometer and analyzed using FlowJo software (Tree Star). Reduced (GSH) and oxidized glutathione (GSSG) was measured with a GSH/GSSG-Glo Assay kit (V6611, Promega) for the indicated amount of time.

Data set [4] relates to KP, KPN and KPK cell lines. In words: Viability of isogenic cell line panel treated with oxidative stress inducers (cell-titer glo). The format is cell-based, mouse. The settings on record: 72 hours of drug treatment. Here is the method:
as §1

The subject of data set [5] is KPN-ix cell lines. Description: BSO dose response in KPN-ix cells with doxycycline inducible GOF-Nrf2. The format is cell-based, mouse. How it is done: as §1
For data set [6], the system named is KP-ix cells. Description: Viability counts of KP-ix cells (doxycycline inducible GOF-Nrf2) with CB-839. The format is cell-based, mouse. The settings on record: CB-839 250 nM, 72 hours. How it is done:
as §1

For data set [7], the system named is KP-derived tumors. In words: CB-839 treatment of KP-derived subcutaneous and orthotopic tumors in immunodeficient animals. It counts as in vivo, mouse. The settings on record: subcutaneous and orthotopic transplants; 200 mg/kg CB-839 twice a day. Here is the method:
(§2) Animals were treated as before (Davidson et al. 2016, Cell Metab 23:517-528, doi: 10.1016/j.cmet.2016.01.007) with 200 mg/kg CB-839 or vehicle twice a day after tumor establishment phase. The vehicle contained 25% (w/v) hydroxypropyl-β-cyclodextrin in 10 mmol/L citrate (pH 2.0), and CB-839 was formulated at 20 mg/mL for a final dosing volume of 10 mL/kg.
(§3) It was next asked if increased glutamine utilization in KPK cell lines could be a druggable metabolic liability. […] Consistently, a panel of human lung cancer cells containing KEAP1 mutations or GOF mutations in NRF2 were sensitive to glutaminase inhibition while KEAP1 WT cells were largely resistant (FIG. 9C and FIG. 10B). […] To investigate the therapeutic potential of targeting glutaminase in Keap mutant tumors in vivo, KP and KPK cells were transplanted subcutaneously and orthotopically (lung) in immunodeficient animals. Once tumors had established, treatment was initiated with either vehicle or CB-839, an orally bioavailable glutaminase inhibitor in phase I clinical trials for KRAS mutant NSCLC (FIG. 9E).

The subject of data set [8] is T cell. Description: Impact of CB839 on T cell function (data not shown). It counts as cell-based.
Data set [9] has as its system KPK-derived subcutaneous and orthotopic tumors. In words: CB-839 treatment of KPK-derived subcutaneous and orthotopic tumors in immunodeficient animals. The format is in vivo, mouse. How it is done:
as §2, §3

For data set [10], the system named is Nrf2. Description: Western blot for Nrf2 after oxidative stress inducer DMF in isogenic KP/KPK cells. It counts as cell-based, mouse. The settings on record: control (KP) cells; 6 hour DMF treatment. The text has this: To perform in vitro functional characterization of and Keap1, isogenic cell lines were generated from a Kras^LSL-G12D/+; p53^−/− C57B6 GEMM-derived cell line using the CRISPR/Cas9 and sgRNAs against Keap1. LOF of the gene was validated by western blot analysis in basal conditions and in the presence of an oxidative stress inducer, dimethyl fumarate (DMF), which is known to deplete the cellular glutathione pool and induce Nrf2 activation (Sullivan et al., “The Proto-oncometabolite Fumarate Binds Glutathione to Amplify ROS-Dependent Signaling,” Molecular Cell 51:236-248 (2013), which is hereby incorporated by reference in its entirety). It was observed that Nrf2 is induced in control cells in response to 6 hour DMF treatment. Keap1 LOF leads to a robust increase of Nrf2 even in the absence of DMF (FIG. 13).

Data set [11] deals with KPN cells. Description: Viability of KPN (Nrf2 loss) cells under oxidative stress agents. The format is cell-based, mouse. The conditions noted are these: KPN cells treated with oxidative stress agents (BSO, AUR, ERA). How it is done: as §1
The conditions of data set [12]: intraperitoneal, 50 mg/kg daily over 30 days; cited from earlier work.
Data set [13] relates to GPD2. The conditions noted are these: in vivo; cited from earlier work.

Where a name gives a salt, the structure may show the parent alone. Read-outs that look alike come from different tables or passages of the source.

In the case of `C[S+]([O-])CCCCN=C=S` (racemic) [Sulforaphane, D,L-Sulforaphane], the “Nrf2 protein levels and expression of target genes” value in data set [1] (KP cells) is “stabilized Nrf2 protein levels and expression of target genes”; in data set [1] (KP cells, listed as SFN), “accumulation of Nrf2 occurs only in the KP samples”; in data set [1] (KPK or KPN cells, listed as SFN), “not further stabilized”.
Regarding `O=CC[C@@H](O)[C@H](O)[C@H](O)CO` [2-deoxy-D-glucose], the “sensitivity to glycolytic inhibitor” value in [2] (KPK compared to KP cells, 5 mM 2DG for 72 h) was “increased sensitivity”.
Consider `CCCCS(=N)(=O)CCC(N)C(=O)O` [BSO, L-Buthionine-sulfoximine], for which the “levels of GSH and viability” value in data set [3] (KPK compared to KP clones, 100 μM BSO) was “maintain measurable levels of GSH and viability”. Moreover, in data set [3] (KPN clones, after 12 hours of BSO treatment (100 μM)), the GSH pools entry is “rapid exhaustion of GSH pools”. Also, the “reduced glutathione (GSH): oxidized glutathione (GSSG) ratio” value in [3] (panel of isogenic cell lines (KP, KPN, KPK)) is “stark contrast”. Besides, the “genotype-specific sensitivity (cell viability)” value in [4] was “distinct genotype-specific sensitivities”. Further, in data set [5] (72 hours of dox induction), the “BSO-mediated loss of viability upon induction of GOF-Nrf2” value is on record as “rescued”. Moreover, in data set [5] (KPN-ix +dox versus -dox, 72 hours), the “IC50 of BSO” value is “increase”.
For the compound `O=C(Cc1cccc(OC(F)(F)F)c1)Nc1ccc(CCCCc2nnc(NC(=O)Cc3ccccn3)s2)nn1` [CB-839], in [6], the “sensitivity to CB-839 upon induction of GOF-Nrf2” value is recorded as “robust sensitivity”. The “tumor response to treatment” value in [7] is reported as “no response”. Moreover, in data set [2] (KPK compared to KP cell lines, 72 hours), the “sensitivity to glutaminase inhibitors” value was “far more sensitive”. Further, the “impact on T cell function” value in [8] is on record as “does not negatively impact T cell function”. For the same compound, the final tumor weights result in data set [9] (200 mg/kg CB-839 twice a day versus vehicle) is “smaller final tumor weights”. In [9] (subcutaneous and orthotopic transplants, 200 mg/kg CB-839 twice a day), the “tumor growth over the course of the experiment” value is “dramatic stunted growth”.
As for `COC(=O)/C=C/C(=O)OC` [DMF, Dimethyl fumarate], the “Nrf2 induction (western blot)” value in data set [10] is “induced”.
As for `CC(=O)N[C@@H](CS)C(=O)O` [N-acetyl cysteine, N-acetyl-L-cysteine], the “rescue of loss of viability by antioxidants” value in [11] is “rescued”.
Regarding `Cc1c(C)c2c(c(C)c1O)CCC(C)(C(=O)O)O2` (stereo not shown) [Trolox], in data set [11], the “rescue of loss of viability by antioxidants” value is recorded as “rescued”.
As for `CC(=O)OC[C@H]1O[C@@H]([S-])[C@H](OC(C)=O)[C@@H](OC(C)=O)[C@@H]1OC(C)=O.CCP(CC)CC.[Au+]` [auranofin, Auranofin], in data set [4], the “genotype-specific sensitivity (cell viability)” value is on record as “distinct genotype-specific sensitivities”.
In the case of `CN(C)C(=N)N=C(N)N` [metformin], the toxicity entry in data set [12] is “no toxicity”. Besides, the GPD2 enzymatic activity entry in data set [13] was “inhibits”.
